What was measured:
[1] = 1:1 complex, fully deprotonated chelant, 25° C., 0.1M ionic strength; cited from earlier work
[2] = Calculated conditional stability constants for chelants with Ca^+2 at specified pH; type: physicochemical
Description: (§1) However, as the pH range of the present compositions are acidic (i.e., less than 7), the log alpha value (αm) is considered to be constant and approximately negligible.
The calculated stability constants for a range of chelants with Fe^+3, Cu^+2, and Ca^+2 are given below in Table 3: […]

[3] = 1:1 complex, fully deprotonated chelant, 25° C., 0.1M ionic strength; cited from earlier work; remark: listed apart in the source
[4] = 1:1 complex, fully deprotonated chelant, 25° C., 0.1M ionic strength; cited from earlier work; remark: listed apart in the source
[5] = Calculated conditional stability constants for chelants with Fe^+3 at specified pH
Description: The gradual change in ligand species as pH changes can be represented using alpha (α) coefficients, defined as: [formula] […] By combining stability (K) and alpha (α) constants at a given pH, the formula below provides the effective chelating power of a chelant.

[6] = Calculated conditional stability constants for chelants with Cu^+2 at specified pH; type: physicochemical
Description: as §1

| SMILES | log Conditional Stability Constant (@ pH) Ca^+2 ([2]; pH 2) | log Conditional Stability Constant (@ pH) Ca^+2 ([2]; pH 3) | log Conditional Stability Constant (@ pH) Ca^+2 ([2]; pH 4) | log Conditional Stability Constant (@ pH) Ca^+2 ([2]; pH 5) | log Conditional Stability Constant (@ pH) Ca^+2 ([2]; pH 6) | log Conditional Stability Constant (@ pH) Ca^+2 ([2]; pH 7) | log Conditional Stability Constant (@ pH) Ca^+2 ([2]; pH 8) | log Conditional Stability Constant (@ pH) Cu^+2 ([6]; pH 2) | log Conditional Stability Constant (@ pH) Cu^+2 ([6]; pH 3) | log Conditional Stability Constant (@ pH) Cu^+2 ([6]; pH 4) | log Conditional Stability Constant (@ pH) Cu^+2 ([6]; pH 5) | log Conditional Stability Constant (@ pH) Cu^+2 ([6]; pH 6) | log Conditional Stability Constant (@ pH) Cu^+2 ([6]; pH 7) | log Conditional Stability Constant (@ pH) Cu^+2 ([6]; pH 8) | log K Ca [1] | log K Cu [3] | log K Fe [4] | other results |
| --- | --- | --- | --- | --- | --- | --- | --- | --- | --- | --- | --- | --- | --- | --- | --- | --- | --- | --- |
| O=P(O)(O)CN(CCN(CP(=O)(O)O)CP(=O)(O)O)CCN(CP(=O)(O)O)CP(=O)(O)O [DTPMP, diethylenetriamine penta(methylene phosphonic acid)] | −21.50 | −17.50 | −13.50 | −9.50 | −5.53 | −1.72 | 1.45 | −9.10 | −5.10 | −1.10 | 2.90 | 6.87 | 10.68 | 13.85 | 7.1 | 19.5 | 26.5 | log Conditional Stability Constant (@ pH) Fe^+3 ([5]; pH 2): −2.10; log Conditional Stability Constant (@ pH) Fe^+3 ([5]; pH 3): 1.90; log Conditional Stability Constant (@ pH) Fe^+3 ([5]; pH 4): 5.90; log Conditional Stability Constant (@ pH) Fe^+3 ([5]; pH 5): 9.90; log Conditional Stability Constant (@ pH) Fe^+3 ([5]; pH 6): 13.87; log Conditional Stability Constant (@ pH) Fe^+3 ([5]; pH 7): 17.68; log Conditional Stability Constant (@ pH) Fe^+3 ([5]; pH 8): 20.85 |
| O=C(O)CC(NCCNC(CC(=O)O)C(=O)O)C(=O)O (mixture of isomers) [EDDS, ethylene diamine disuccinic acid] | −11.11 | −7.42 | −4.50 | −2.29 | −0.13 | 1.36 | 2.56 | 2.59 | 6.28 | 9.20 | 11.41 | 13.39 |  | 16.26 | 4.58 | 18.35 | 22.0 | log Conditional Stability Constant (@ pH) Fe^+3 ([5]; pH 2): 6.29; log Conditional Stability Constant (@ pH) Fe^+3 ([5]; pH 3): 9.98; log Conditional Stability Constant (@ pH) Fe^+3 ([5]; pH 4): 12.90; log Conditional Stability Constant (@ pH) Fe^+3 ([5]; pH 6): 17.09; log Conditional Stability Constant (@ pH) Fe^+3 ([5]; pH 7): 18.76; log Conditional Stability Constant (@ pH) Fe^+3 ([5]; pH 8): 19.96 |
| CC(O)(P(=O)(O)O)P(=O)(O)O [HEDP] |  |  |  |  |  |  |  |  |  |  |  |  |  |  | 6.0 | 11.84 | 14.1 |  |
| O=C(O)CN(CCN(CC(=O)O)Cc1ccccc1O)Cc1ccccc1O [HBED] |  |  |  |  |  |  |  |  |  |  |  |  |  |  | 9.3 | 9.29 | 39.7 | log Conditional Stability Constant (@ pH) Fe^+3 ([5]; pH 2): 13.54; log Conditional Stability Constant (@ pH) Fe^+3 ([5]; pH 3): 17.54; log Conditional Stability Constant (@ pH) Fe^+3 ([5]; pH 4): 21.52; log Conditional Stability Constant (@ pH) Fe^+3 ([5]; pH 5): 25.39; log Conditional Stability Constant (@ pH) Fe^+3 ([5]; pH 6): 28.82; log Conditional Stability Constant (@ pH) Fe^+3 ([5]; pH 7): 31.89; log Conditional Stability Constant (@ pH) Fe^+3 ([5]; pH 8): 34.85 |
| O=C(O)CN(CCN(CC(=O)O)CC(=O)O)CC(=O)O [EDTA] | −2.65 | 0.19 | 2.36 | 4.35 | 6.14 | 7.45 | 8.50 | 5.45 | 8.29 | 10.46 | 12.45 | 14.24 | 15.55 | 16.60 | 10.65 | 18.78 | 14.3 |  |
| O=C(O)CC[C@H](NCCN[C@H](CCC(=O)O)C(=O)O)C(=O)O [EDDG, ethylenediamine-N,N′-diglutaric acid] |  |  |  |  |  |  |  |  |  |  |  |  |  |  | 2.70 | 15.15 |  |  |
| O=C(O)CN(CCN(CC(=O)O)CC(=O)O)CCN(CC(=O)O)CC(=O)O [DTPA] | −7.26 | −3.72 | −0.75 | 1.64 | 3.71 | 5.71 | 7.62 | 3.34 | 6.88 | 9.85 | 12.24 | 14.31 | 16.31 | 18.22 | 10.75 | 21.4 | 16.4 |  |

Second part, led by results:

| log Conditional Stability Constant (@ pH) Ca^+2 ([2]; pH 2) | log Conditional Stability Constant (@ pH) Ca^+2 ([2]; pH 3) | log Conditional Stability Constant (@ pH) Ca^+2 ([2]; pH 4) | log Conditional Stability Constant (@ pH) Ca^+2 ([2]; pH 5) | log Conditional Stability Constant (@ pH) Ca^+2 ([2]; pH 6) | log Conditional Stability Constant (@ pH) Ca^+2 ([2]; pH 7) | log Conditional Stability Constant (@ pH) Ca^+2 ([2]; pH 8) | log Conditional Stability Constant (@ pH) Cu^+2 ([6]; pH 2) | log Conditional Stability Constant (@ pH) Cu^+2 ([6]; pH 3) | log Conditional Stability Constant (@ pH) Cu^+2 ([6]; pH 4) | log Conditional Stability Constant (@ pH) Cu^+2 ([6]; pH 5) | log Conditional Stability Constant (@ pH) Cu^+2 ([6]; pH 6) | log Conditional Stability Constant (@ pH) Cu^+2 ([6]; pH 7) | log Conditional Stability Constant (@ pH) Cu^+2 ([6]; pH 8) | SMILES | log K Ca [1] | log K Cu [3] | log K Fe [4] | other results |
| --- | --- | --- | --- | --- | --- | --- | --- | --- | --- | --- | --- | --- | --- | --- | --- | --- | --- | --- |
| −5.81 | −2.90 | −0.35 | 1.68 | 3.21 | 4.33 | 5.34 | 3.39 | 6.30 | 8.85 | 10.88 | 12.41 | 13.53 | 14.54 | O=C(O)CN(CCO)CCN(CC(=O)O)CC(=O)O [HEDTA] |  |  |  |  |
| −7.62 | −3.88 | −1.45 | 0.13 | 1.25 | 2.27 | 3.27 | −0.42 | 3.32 | 5.75 | 7.33 | 8.45 | 9.47 | 10.47 | O=C(O)CC[C@@H](C(=O)O)N(CC(=O)O)CC(=O)O [GLD, glutamic acid diacetic acid] |  |  |  |  |
| −3.10 | −1.06 | 0.18 | 1.21 | 2.21 | 3.21 | 4.21 | 3.80 | 5.84 | 7.08 | 8.11 | 9.11 | 10.11 |  | CC(C(=O)O)N(CC(=O)O)CC(=O)O (centres unmarked) [MGDA, methylglycinediacetic acid] |  |  |  |  |
| −14.17 | −10.27 | −6.91 | −4.50 | −2.45 | 0.47 | 1.31 | −4.27 | −0.37 | 2.99 | 5.40 | 7.45 | 9.43 | 11.21 | O=C(O)CC(NCC(O)CNC(CC(=O)O)C(=O)O)C(=O)O (centres unmarked) [HPDDS, 2-hydroxypropylendiamin-N—N′-disucinnic acid] | 2.94 | 12.84 |  |  |
